Reference: patent US6737383B1, “Herbicidal oxadiazolidines” (priority 1999, dated 2004)

Tests used:
smallflower flatsedge = test: Test B flood test smallflower flatsedge; assay type: in vivo, Cyperus difformis
How it was run: (§1)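 Each value is a visual injury score relative to controls, with 10 meaning complete control and 0 no effect. Evaluation took place twelve to sixteen days after the 2-leaf-stage plants were treated and kept in the greenhouse.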

rice = test: Test B flood test rice; assay type: in vivo, Oryza sativa
How it was run: as §1

purple nutsedge = test: Test B pre/postemergence purple nutsedge; assay type: in vivo, Cyperus rotundus
How it was run: (§2)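 Test chemicals in a non-phytotoxic solvent mixture with surfactant were sprayed preemergence onto planted seeds and postemergence onto plants 2 to 18 cm tall (1- to 4-leaf stage). After twelve to sixteen days in a greenhouse, injury was visually rated against untreated controls from 0 (no effect) to 10 (complete control).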

soybean = test: Test B pre/postemergence soybean; assay type: in vivo, Glycine max
How it was run: as §2

morningglory = test: Test B pre/postemergence morningglory; assay type: in vivo, Ipomoea hederacea
How it was run: as §2

wheat = test: Test B pre/postemergence wheat; assay type: in vivo, Triticum aestivum
How it was run: as §2

bedstraw = test: Test B pre/postemergence bedstraw; assay type: in vivo, Galium aparine
How it was run: as §2

giant foxtail = test: Test B pre/postemergence giant foxtail; assay type: in vivo, Setaria faberii
How it was run: as §2

rape = test: Test B pre/postemergence rape; assay type: in vivo, Brassica napus
How it was run: as §2

pigweed = test: Test B pre/postemergence pigweed; assay type: in vivo, Amaranthus retroflexus
How it was run: as §2

crabgrass = test: Test B pre/postemergence crabgrass; assay type: in vivo, Digitaria sanguinalis
How it was run: as §2

corn = test: Test B pre/postemergence corn; assay type: in vivo, Zea mays
How it was run: as §2

blackgrass = test: Test B pre/postemergence blackgrass; assay type: in vivo, Alopecurus myosuroides
How it was run: as §2

wild oat = test: Test B pre/postemergence wild oat; assay type: in vivo, Avena fatua
How it was run: as §2

surinam grass = test: Test B pre/postemergence surinam grass; assay type: in vivo, Brachiaria decumbens
How it was run: as §2

cocklebur = test: Test B pre/postemergence cocklebur; assay type: in vivo, Xanthium strumarium
How it was run: as §2

sugar beet = test: Test B pre/postemergence sugar beet; assay type: in vivo, Beta vulgaris
How it was run: as §2

bamyardgrass = test: Test B flood test barnyardgrass; assay type: in vivo, Echinochloa crus-galli
How it was run: as §1

duck salad = test: Test B flood test duck salad; assay type: in vivo, Heteranthera limosa
How it was run: as §1

velvetleaf = test: Test B pre/postemergence velvetleaf; assay type: in vivo, Abutilon theophrasti
How it was run: as §2

[1] = Rate 62 g/ha, headed Pre-emergence (flood test species), scale 0 to 10 (0 no effect, 10 complete control)
[2] = Rate 125 g/ha, Pre-emergence, flood test species, scale 0 to 10 where 0 is no effect and 10 is complete control
[3] = Rate 250 g/ha, Pre-emergence, flood-test species, scale 0 to 10, 0 is no effect, 10 is complete control
[4] = Rate 500 g/ha, Pre-emergence, flood test species, scale 0 to 10 (0 no effect, 10 complete control)
[5] = Preemergence, Rate 250 g/ha, scale of 0 to 10 where 0 is no effect and 10 is complete control
[6] = Rate 62 g/ha, Postemergence, scale of 0 to 10 where 0 is no effect and 10 is complete control
[7] = Rate 500 g/ha, Postemergence, scale 0 to 10, 0 no effect, 10 complete control
[8] = Preemergence, Rate 62 g/ha, scale of 0 to 10 where 0 is no effect and 10 is complete control
[9] = Preemergence, Rate 500 g/ha, scale of 0 to 10 where 0 is no effect and 10 is complete control
[10] = Rate 125 g/ha, Preemergence, scale of 0 to 10 where 0 is no effect and 10 is complete control
[11] = Rate 125 g/ha, Postemergence, scale 0 to 10

## Cc1ccccc1-n1c(=O)on(C(=O)N(c2ccc(F)cc2)C(C)C2CC2)c1=O (centres unmarked) [Compound 240]
Smallflower flatsedge; [1]
  S. Flatsedge plant response rating: 0
Smallflower flatsedge; [2]
  S. Flatsedge plant response rating: 0
Smallflower flatsedge; [3]
  S. Flatsedge plant response rating: 0
Smallflower flatsedge; [4]
  S. Flatsedge plant response rating: 0
rice; [1]
  Rice plant response rating: 0
rice; [2]
  Rice plant response rating: 0
rice; [3]
  Rice plant response rating: 0
rice; [4]
  Rice plant response rating: 0
Purple nutsedge; [5]
  Nutsedge plant response rating: 0
Purple nutsedge; [6]
  Nutsedge plant response rating: 0
Purple nutsedge; Rate 250 g/ha, Postemergence
  Plant response rating (0 to 10; 0 is no effect, 10 is complete control), Nutsedge: 0
Purple nutsedge; [7]
  Nutsedge plant response rating: 0
soybean; [8]
  Soybean plant response rating: 0
soybean; [5]
  Soybean plant response rating: 0
soybean; [9]
  Plant response rating, Soybean: 0
soybean; [6]
  Soybean plant response rating: 0
soybean; [10]
  Soybean plant response rating: 0
soybean; [7]
  Soybean plant response rating: 3
morningglory; [8]
  Morningglory plant response rating: 0
morningglory; [5]
  Morningglory plant response rating: 0
morningglory; [9]
  Plant response rating, Morningglory: 0
morningglory; [6]
  Morningglory plant response rating: 5
morningglory; [10]
  Morningglory plant response rating: 0
morningglory; Rate 250 g/ha, Postemergence
  Plant response rating (0 to 10; 0 is no effect, 10 is complete control), Morningglory: 10
morningglory; [7]
  Morningglory plant response rating: 10
wheat; [8]
  Wheat plant response rating: 0
wheat; [5]
  Wheat plant response rating: 0
wheat; [9]
  Plant response rating, Wheat: 0
wheat; [6]
  Wheat plant response rating: 0
wheat; [10]
  Wheat plant response rating: 0
wheat; [7]
  Wheat plant response rating: 2
bedstraw; [8]
  Bedstraw plant response rating: 0
bedstraw; [5]
  Bedstraw plant response rating: 0
bedstraw; [9]
  Plant response rating, Bedstraw: 0
bedstraw; [6]
  Bedstraw plant response rating: 0
bedstraw; [11]
  Bedstraw plant response rating: 3
bedstraw; [10]
  Bedstraw plant response rating: 0
bedstraw; Rate 250 g/ha, Postemergence
  Plant response rating (0 to 10; 0 is no effect, 10 is complete control), Bedstraw: 3
bedstraw; [7]
  Bedstraw plant response rating: 5
Giant foxtail; [8]
  Giant foxtail plant response rating: 5
Giant foxtail; [5]
  Giant foxtail plant response rating: 10
Giant foxtail; [9]
  Plant response rating, Giant foxtail: 10
Giant foxtail; [6]
  Giant foxtail plant response rating: 0
Giant foxtail; [10]
  Giant foxtail plant response rating: 5
Giant foxtail; Rate 250 g/ha, Postemergence
  Plant response rating (0 to 10; 0 is no effect, 10 is complete control), Giant foxtail: 0
Giant foxtail; [7]
  Giant foxtail plant response rating: 2
rape; [8]
  Rape plant response rating: 0
rape; [5]
  Rape plant response rating: 0
rape; [9]
  Plant response rating, Rape: 0
rape; [6]
  Rape plant response rating: 0
rape; [10]
  Rape plant response rating: 0
rape; Rate 250 g/ha, Postemergence
  Plant response rating (0 to 10; 0 is no effect, 10 is complete control), Rape: 0
rape; [7]
  Rape plant response rating: 0
pigweed; [8]
  Redroot pigweed plant response rating: 0
pigweed; [5]
  Redroot pigweed plant response rating: 0
pigweed; [9]
  Plant response rating, Redroot pigweed: 0
pigweed; [6]
  Redroot pigweed plant response rating: 0
pigweed; [10]
  Redroot pigweed plant response rating: 0
pigweed; Rate 250 g/ha, Postemergence
  Plant response rating (0 to 10; 0 is no effect, 10 is complete control), Redroot pigweed: 2
pigweed; [7]
  Redroot pigweed plant response rating: 7
crabgrass; [8]
  Crabgrass plant response rating: 2
crabgrass; [5]
  Crabgrass plant response rating: 9
crabgrass; [9]
  Plant response rating, Crabgrass: 9
crabgrass; [6]
  Crabgrass plant response rating: 0
crabgrass; [10]
  Crabgrass plant response rating: 4
crabgrass; Rate 250 g/ha, Postemergence
  Plant response rating (0 to 10; 0 is no effect, 10 is complete control), Crabgrass: 2
crabgrass; [7]
  Crabgrass plant response rating: 4
corn; [8]
  Corn plant response rating: 0
corn; [5]
  Corn plant response rating: 0
corn; [9]
  Plant response rating, Corn: 0
corn; [6]
  Corn plant response rating: 0
corn; [11]
  Corn plant response rating: 0
corn; [10]
  Corn plant response rating: 0
corn; Rate 250 g/ha, Postemergence
  Plant response rating (0 to 10; 0 is no effect, 10 is complete control), Corn: 0
corn; [7]
  Corn plant response rating: 0
blackgrass; [8]
  Blackgrass plant response rating: 0
blackgrass; [5]
  Blackgrass plant response rating: 0
blackgrass; [9]
  Plant response rating, Blackgrass: 2
blackgrass; [6]
  Blackgrass plant response rating: 0
blackgrass; [11]
  Blackgrass plant response rating: 0
blackgrass; [10]
  Blackgrass plant response rating: 0
blackgrass; Rate 250 g/ha, Postemergence
  Plant response rating (0 to 10; 0 is no effect, 10 is complete control), Blackgrass: 0
blackgrass; [7]
  Blackgrass plant response rating: 5
Wild oat; [8]
  Wild oats plant response rating: 0
Wild oat; [5]
  Wild oats plant response rating: 0
Wild oat; [9]
  Plant response rating, Wild oats: 0
Wild oat; [6]
  Wild oats plant response rating: 0
Wild oat; [10]
  Wild oats plant response rating: 0
Wild oat; [7]
  Wild oats plant response rating: 2
Surinam grass; [8]
  B. signalgrass plant response rating: 0
Surinam grass; [5]
  B. signalgrass plant response rating: 0
Surinam grass; [9]
  Plant response rating, B. signalgrass: 3
Surinam grass; [6]
  B. signalgrass plant response rating: 0
Surinam grass; Rate 125 g/ha, Postemergence, scale 0 (no effect) to 10 (complete control)
  B. signalgrass plant response rating: 0
Surinam grass; [10]
  B. signalgrass plant response rating: 0
Surinam grass; Rate 250 g/ha, Postemergence
  Plant response rating (0 to 10; 0 is no effect, 10 is complete control), B. signalgrass: 0
Surinam grass; [7]
  B. signalgrass plant response rating: 0
cocklebur; [8]
  Cocklebur plant response rating: 0
cocklebur; [5]
  Cocklebur plant response rating: 0
cocklebur; [9]
  Plant response rating, Cocklebur: 0
cocklebur; [6]
  Cocklebur plant response rating: 0
cocklebur; [11]
  Cocklebur plant response rating: 1
cocklebur; [10]
  Cocklebur plant response rating: 0
cocklebur; Rate 250 g/ha, Postemergence
  Plant response rating (0 to 10; 0 is no effect, 10 is complete control), Cocklebur: 1
cocklebur; [7]
  Cocklebur plant response rating: 1
Sugar beet; [8]
  Sugarbeets plant response rating: 0
Sugar beet; [5]
  Sugarbeets plant response rating: 0
Sugar beet; [9]
  Plant response rating, Sugarbeets: 0
Sugar beet; [6]
  Sugarbeets plant response rating: 0
Sugar beet; [10]
  Sugarbeets plant response rating: 0
Sugar beet; [7]
  Sugarbeets plant response rating: 3
bamyardgrass; [1]
  Barnyardgrass plant response rating: 0
bamyardgrass; [2]
  Barnyardgrass plant response rating: 0
bamyardgrass; [3]
  Barnyardgrass plant response rating: 0
bamyardgrass; [4]
  Barnyardgrass plant response rating: 0
Duck salad; [1]
  Ducksalad plant response rating: 0
Duck salad; [2]
  Ducksalad plant response rating: 0
Duck salad; [3]
  Ducksalad plant response rating: 0
Duck salad; [4]
  Ducksalad plant response rating: 0
velvetleaf; [8]
  Velvetleaf plant response rating: 0
velvetleaf; [5]
  Velvetleaf plant response rating: 0
velvetleaf; [9]
  Plant response rating, Velvetleaf: 2
velvetleaf; [6]
  Velvetleaf plant response rating: 0
velvetleaf; [10]
  Velvetleaf plant response rating: 0
velvetleaf; [7]
  Velvetleaf plant response rating: 3
